From ChEMBL document CHEMBL5729415, “Compounds for treatment of PD-L1 diseases” (2022)
pIC50: −log10 of the molar value.

Biological target: Programmed cell death 1 ligand 1 (Homo sapiens, UniProt Q9NZQ7)
Assay: Enzyme-Linked Immunosorbent Assay—ELISA: 96 Well plates were coated with 1 μg/mL of human PD-L1 (obtained from R&D) in PBS overnight at 4′° C. The wells were then blocked with 2% BSA in PBS (W/V) with 0.05% TWEEN-20 for 1 hour at 37′° C. The plates were washed 3 times with PBS/0.05% TWEEN-20 and the compounds were serial diluted (1:5) in dilution medium and added to the ELISA plates. Human PD-1 and biotin 0.3 μg/mL (ACRO Biosystems) were added and incubated for 1 hour at 37° C. then washed 3 times with PBS/0.05% TWEEN-20. A second block was performed with 2% BSA in PBS (WNV)/0.05% TWEEN-20 for 10 min at 37° C. and the plates were washed 3 times with PBS/0.05% TWEEN-20. Streptavidin-HIRP was added for 1 hour at 37° C. then the plates were washed 3 times with PBS/0.05% TWEEN-20. TMB substrate was added and reacted for 20 min at 37° C. A stop solution (2 N aqueous H2SO4) was added.

Sequence of Programmed cell death 1 ligand 1 (Q9NZQ7 whole entry): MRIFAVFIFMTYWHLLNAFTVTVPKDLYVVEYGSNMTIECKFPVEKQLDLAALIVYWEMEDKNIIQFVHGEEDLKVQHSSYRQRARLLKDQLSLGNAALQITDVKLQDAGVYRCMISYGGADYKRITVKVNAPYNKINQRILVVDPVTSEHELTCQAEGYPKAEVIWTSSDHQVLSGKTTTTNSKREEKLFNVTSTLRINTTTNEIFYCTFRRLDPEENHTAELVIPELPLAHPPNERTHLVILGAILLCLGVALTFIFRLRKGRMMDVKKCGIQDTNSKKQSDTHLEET

COc1cc(F)cc(-c2cccc(-c3cc(F)c(CN)c(OC)c3)c2C)c1
pIC50: > 6.00

COC(=O)c1ccc(-c2cccc(-c3cccc(-c4cc(F)c(CN)c(OC)c4)c3C)c2C)cc1OC
pIC50: > 6.00

COc1cc(-c2cccc(-c3cccc(-c4ccc(CN)cc4)c3C)c2C)cc(F)c1CN
pIC50: > 6.00

COc1cc(-c2cccc(-c3ccc4c(c3)OC(CN)CO4)c2C)cc(F)c1CN (centres undefined)
pIC50: > 6.00

COc1cc(-c2cccc(-c3cccc(-c4cc(F)c(CN)c(OC)c4)c3C)c2C)ccc1CC(N)=O
pIC50: > 6.00

COc1cc(OC)c(F)c(-c2cccc(-c3cc(F)c(CN)c(OC)c3)c2C)c1F
pIC50: > 6.00

COc1cc(-c2cccc(-c3cccc(C)c3)c2C)cc(F)c1CN
pIC50: > 6.00

Cc1c(-c2ccc(CN)cc2)cccc1-c1cccc(-c2ccc(CN)cc2)c1C
pIC50: > 6.00

COc1cc(-c2cccc(-c3ccc4c(c3C)OCCO4)c2C)cc(F)c1CN
pIC50: > 6.00

COc1cc(-c2cccc(-c3cccc(-c4cc(F)c(CN)c(OC)c4)c3C)c2C)cc(F)c1CN
pIC50: > 6.00

COc1cc(-c2cccc(-c3ccc4c(c3F)OCCO4)c2C)cc(F)c1CN
pIC50: > 6.00

COc1cccc(-c2cccc(-c3cc(F)c(CN)c(OC)c3)c2C)c1F
pIC50: > 6.00

COc1cccc(-c2cccc(-c3cc(F)c(CN)c(OC)c3)c2C)c1
pIC50: > 6.00

COc1ccc(F)c(-c2cccc(-c3cc(F)c(CN)c(OC)c3)c2C)c1F
pIC50: > 6.00

COc1cc(-c2cccc(-c3ccc4nc[nH]c(=O)c4c3)c2C)cc(F)c1CN
pIC50: > 6.00

COc1cc(-c2cccc(-c3cccc(C)c3F)c2C)cc(F)c1CN
pIC50: > 6.00

COc1cc(-c2cccc(-c3ccc4c(c3)NC(=O)CO4)c2C)cc(F)c1CN
pIC50: > 6.00

COc1cc(-c2cccc(-c3ccc4c(c3)OCCO4)c2C)cc(F)c1CN
pIC50: > 6.00

COc1cccc(-c2cccc(-c3cc(F)c(CN)c(OC)c3)c2C)c1C
pIC50: > 6.00
